# Where a name gives a salt, the structure may show the parent alone.
# Key:
# synthesis of cholesterol = conditions: in words; Japanese Patent Application No. 165490/1983, J. Antibiotics 38, 328-332 (1985); cited from earlier work
# [1] = Absorbability and effect (statement in words)
# serum cholesterol = assay: Serum cholesterol lowering activity, oral, rabbit, 5 successive days; type: in vivo; conditions: two times a day, 5 days
# Description: (1) Serum cholesterol lowering activity the metal salt of organic phosphate according to the present invention was orally administered to a rabbit (body weight of about 3 Kg) two times a day (at 9:00 a.m. and 4:00 p.m.) for 5 successive days. After 5 days, blood was sampled and the total cholesterol value in serum was measured in a conventional manner.
# mouse = assay: Acute toxicity, mouse; type: in vivo
# Excerpt: (§1) The acute toxicity of the metal salt of CB3A and of CK3A was examined by orally or peritoneally administrating an aqueous solution or dispersion thereof the results are shown in Table 2.
# (§2) a . . . per os (oral administration)
# (§3) b . . . intraperitoneal injection
# [2] = Water solubility, hygroscopic property and stability (statements in words); type: physicochemical
# rat = assay: Acute toxicity, rat; type: in vivo
# Excerpt: as §1, §2, §3
# [3] = Stability, 5 weeks at 45° C. and humidity of 80% (HPLC remaining rate); type: physicochemical; conditions: after 5 weeks, humidity of 80%; for Remaining rate: 50400 min; for remaining at 840 h: solid, 80% humidity
# Description: One gram each of CB3A, CK3A and various metal salts thereof was placed in a beaker and the beaker was allowed to stand for 5 weeks in a constant temperature and humidity bath controlled at a temperature of 45° C. and a humidity of 80%. After 5 weeks, a remaining rate of the compound was analyzed quantitatively with a high performance liquid chromatography "Tri rotar" manufactured by Nippon Bunko K. K. (Japan).
# A0 = initial amount of the compound prior to standing in the constan
# temperature and humidity bath
# A1 = final amount of the compound after 5 weeks
# Acute toxicity, mouse = type: in vivo; conditions: in vivo
# Excerpt: as §1, §2, §3
# Acute toxicity, rat = type: in vivo; conditions: in vivo
# Excerpt: as §1, §2, §3
Structure (SMILES),Total Serum cholesterol lowering rate (serum cholesterol; 1.5 mg/kg/day) [%],Total Serum cholesterol lowering rate (serum cholesterol; 6 mg/kg/day) [%],LD50 (mouse; intraperitoneal injection) [mg/kg],LD50 (mouse; per os (oral administration)) [mg/kg],stability [2],LD50 (rat; intraperitoneal injection) [mg/kg],LD50 (rat; per os (oral administration)) [mg/kg],Remaining rate [3] [%],water solubility [2],hygroscopic property [2],other results
"CCC(C)C(=O)OC1CC(C)C=C2C=CC(C)C(CCC(CC(O)CC(=O)O)OP(=O)(O)O)C21 (centres unmarked) [CK3A, reference compound]",9.7,24.4,> 500,> 2000,unstable,> 500,> 2000,13,–,–,activity of inhibiting the synthesis of cholesterol (synthesis of cholesterol): strong activity of inhibiting the synthesis of cholesterol; absorbability and effect [1]: unsatisfactory
CCC(C)C(=O)OC1CCC=C2C=CC(C)C(CCC(CC(O)CC(=O)O)OP(=O)(O)O)C21 (centres unmarked) [CB3A-2Na salt],–,–,–,–,–,–,–,78,–,–,–
"CCC(C)C(=O)OC1CCC=C2C=CC(C)C(CCC(CC(O)CC(=O)O)OP(=O)(O)O)C21 (centres unmarked) [CB3A-3Na salt, Trisodium salt of CB3A]",18.5,34.3,> 500,> 2000,excellent,> 500,> 2000,82,excellent,–,–
"CCC(C)C(=O)OC1CCC=C2C=CC(C)C(CCC(CC(O)CC(=O)O)OP(=O)(O)O)C21 (centres unmarked) [CB3A-Al salt, Aluminum salt of CB3A]",24.2,41.6,> 500,> 2000,particularly excellent,> 500,> 2000,98,–,no hydroscopic property,–
CCC(C)C(=O)OC1CCC=C2C=CC(C)C(CCC(CC(O)CC(=O)O)OP(=O)(O)O)C21 (centres unmarked) [CB3A-1Na salt],–,–,–,–,–,–,–,74,–,–,–
CCC(C)C(=O)OC1CC(C)C=C2C=CC(C)C(CCC(CC(O)CC(=O)OC)OP(=O)(O)O)C21 (centres unmarked) [CK3A methyl ester],–,–,–,–,–,–,–,–,–,–,activity of inhibiting the synthesis of cholesterol (synthesis of cholesterol): strong activity of inhibiting the synthesis of cholesterol
CCC(C)C(=O)OC1CCC=C2C=CC(C)C(CCC(CC(O)CC(=O)OC)OP(=O)(O)O)C21 (centres unmarked) [CB3A methyl ester],–,–,–,–,–,–,–,–,–,–,activity of inhibiting the synthesis of cholesterol (synthesis of cholesterol): strong activity of inhibiting the synthesis of cholesterol
CCC(C)C(=O)OC1CC(C)C=C2C=CC(C)C(CCC(CC(O)CC(=O)O)OP(=O)(O)O)C21 (centres unmarked) [CK3A-1.5Mg salt],22.1,36.3,–,–,–,–,–,–,–,–,–
"CCC(C)C(=O)OC1CC(C)C=C2C=CC(C)C(CCC(CC(O)CC(=O)O)OP(=O)(O)O)C21 (centres unmarked) [CK3A-3K salt, Tripotassium salt of CK3A]",18.9,34.7,–,–,excellent,–,–,85,excellent,–,"LD50 (Acute toxicity, mouse; ip, intraperitoneal injection): > 500 mg/kg; LD50 (Acute toxicity, mouse; per os (oral administration)): > 2000 mg/kg; LD50 (Acute toxicity, rat; ip, intraperitoneal injection): > 500 mg/kg; LD50 (Acute toxicity, rat; per os (oral administration)): > 2000 mg/kg"
"CCC(C)C(=O)OC1CC(C)C=C2C=CC(C)C(CCC(CC(O)CC(=O)O)OP(=O)(O)O)C21 (centres unmarked) [CK3A-1.5Ca salt, Sesquicalcium salt of CK3A]",24.5,39.9,> 500,> 2000,particularly excellent,> 500,> 2000,96,–,no hygroscopic property,–
"CCC(C)C(=O)OC1CCC=C2C=CC(C)C(CCC(CC(O)CC(=O)O)OP(=O)(O)O)C21 (centres unmarked) [CB3A-3K salt, Tripotassium salt of CB3A]",19.4,33.9,–,–,excellent,–,–,–,excellent,–,"LD50 (Acute toxicity, mouse; ip, intraperitoneal injection): > 500 mg/kg; LD50 (Acute toxicity, mouse; per os (oral administration)): > 2000 mg/kg; LD50 (Acute toxicity, rat; ip, intraperitoneal injection): > 500 mg/kg; LD50 (Acute toxicity, rat; per os (oral administration)): > 2000 mg/kg"
"CCC(C)C(=O)OC1CCC=C2C=CC(C)C(CCC(CC(O)CC(=O)O)OP(=O)(O)O)C21 (centres unmarked) [CB3A-1.5Ca salt, Sesquicalcium salt of CB3A]",23.2,40.2,> 500,> 2000,particularly excellent,> 500,> 2000,97,–,no hygroscopic property,–
"CCC(C)C(=O)OC1CC(C)C=C2C=CC(C)C(CCC(CC(O)CC(=O)O)OP(=O)(O)O)C21 (centres unmarked) [CK3A-1.5Ba salt, Sesquibarium salt of CK3A]",21.1,36.6,–,–,particularly excellent,–,–,–,–,no hygroscopic property,–
"CCC(C)C(=O)OC1CC(C)C=C2C=CC(C)C(CCC(CC(O)CC(=O)OC)OP(=O)(O)O)C21 (centres unmarked) [CK3A methyl ester-Ca salt, Calcium salt of CK3A methyl ester]",24.9,39.2,–,–,particularly excellent,–,–,–,–,no hygroscopic property,–
"CCC(C)C(=O)OC1CC(C)C=C2C=CC(C)C(CCC(CC(O)CC(=O)OC)OP(=O)(O)O)C21 (centres unmarked) [CK3A methyl ester-2K salt, Dipotassium salt of CK3A methyl ester]",18.7,34.7,–,–,excellent,–,–,–,excellent,–,remaining at 840 h [3]: 83%
"CCC(C)C(=O)OC1CCC=C2C=CC(C)C(CCC(CC(O)CC(=O)OC)OP(=O)(O)O)C21 (centres unmarked) [CB3A methyl ester-Ca salt, Calcium salt of CB3A methyl ester]",23.0,40.6,–,–,particularly excellent,–,–,–,–,no hygroscopic property,–
"CCC(C)C(=O)OC1CCC=C2C=CC(C)C(CCC(CC(O)CC(=O)O)OP(=O)(O)O)C21 (centres unmarked) [CB3A-1K salt, Monopotassium salt of CB3A]",19.6,33.7,–,–,excellent,–,–,–,excellent,–,–
"CCC(C)C(=O)OC1CCC=C2C=CC(C)C(CCC(CC(O)CC(=O)O)OP(=O)(O)O)C21 (centres unmarked) [CB3A-1.5Ba salt, Sesquibarium salt of CB3A]",21.3,36.6,–,–,particularly excellent,–,–,–,–,no hygroscopic property,–
"CCC(C)C(=O)OC1CCC=C2C=CC(C)C(CCC(CC(O)CC(=O)O)OP(=O)(O)O)C21 (centres unmarked) [CB3A-2K salt, Dipotassium salt of CB3A]",19.1,34.2,–,–,excellent,–,–,–,excellent,–,–
"CCC(C)C(=O)OC1CC(C)C=C2C=CC(C)C(CCC(CC(O)CC(=O)O)OP(=O)(O)O)C21 (centres unmarked) [CK3A-3Na salt, Trisodium salt of CK3A]",17.1,30.0,> 500,> 2000,excellent,> 500,> 2000,–,excellent,–,–
"CCC(C)C(=O)OC1CC(C)C=C2C=CC(C)C(CCC(CC(O)CC(=O)O)OP(=O)(O)O)C21 (centres unmarked) [CK3A-Al salt, Aluminum salt of CK3A]",23.4,41.6,> 500,> 2000,particularly excellent,> 500,> 2000,98,–,no hygroscopic property,–
"CCC(C)C(=O)OC1CCC=C2C=CC(C)C(CCC(CC(O)CC(=O)OC)OP(=O)(O)O)C21 (centres unmarked) [CB3A methyl ester-2K salt, Dipotassium salt of CB3A methyl ester]",19.5,33.8,–,–,excellent,–,–,–,excellent,–,remaining at 840 h [3]: 84%
CCC(C)C(=O)OC1CCC=C2C=CC(C)C(CCC(CC(O)CC(=O)O)OP(=O)(O)O)C21 (centres unmarked) [CB3A-1.5Mg salt],21.1,36.3,–,–,–,–,–,–,–,–,–
